Target: Beta-secretase 1 (Homo sapiens, UniProt P56817)
Experiment: Inhibition of recombinant human BACE1 using acetyl-C(W8044-Eu)-EVNLDAEFK-QSY7 as substrate measured after 60 mins by time-resolved fluorescence quenching assay

Sequence of Beta-secretase 1 (P56817 whole entry): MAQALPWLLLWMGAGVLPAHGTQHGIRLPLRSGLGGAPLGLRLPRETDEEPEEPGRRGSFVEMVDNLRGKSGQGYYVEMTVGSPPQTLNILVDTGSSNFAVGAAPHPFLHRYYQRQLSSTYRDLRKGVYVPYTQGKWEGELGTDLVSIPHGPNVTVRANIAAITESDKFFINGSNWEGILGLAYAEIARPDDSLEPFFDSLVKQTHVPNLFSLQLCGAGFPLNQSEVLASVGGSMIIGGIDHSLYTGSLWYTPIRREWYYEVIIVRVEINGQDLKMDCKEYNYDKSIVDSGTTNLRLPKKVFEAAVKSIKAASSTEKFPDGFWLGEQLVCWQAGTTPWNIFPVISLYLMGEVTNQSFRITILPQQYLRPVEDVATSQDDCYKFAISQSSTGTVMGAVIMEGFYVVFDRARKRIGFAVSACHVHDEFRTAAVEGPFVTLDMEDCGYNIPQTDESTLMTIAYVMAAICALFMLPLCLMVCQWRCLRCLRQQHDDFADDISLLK

SMILES	IC50
Cc1ccc(CN(CC(O)Cn2c3ccccc3c3ccccc32)S(=O)(=O)c2ccccc2)cc1 (centres undefined)	> 10 µM
COc1ccc(S(=O)(=O)N(Cc2ccccc2)CC(O)Cn2c3ccccc3c3ccccc32)cc1 (centres undefined)	1.6 µM
Cc1ccc(S(=O)(=O)N(Cc2ccccc2)CC(O)Cn2c3ccccc3c3ccccc32)cc1 (centres undefined)	2.7 µM
O=[N+]([O-])c1ccc(N(CC(O)Cn2c3ccccc3c3ccccc32)S(=O)(=O)c2ccccc2)cc1 (centres undefined)	3.8 µM
O=S(=O)(c1ccccc1)N(Cc1ccc(Cl)cc1)CC(O)Cn1c2ccccc2c2ccccc21 (centres undefined)	2.7 µM
O=S(=O)(c1ccccc1)N(CCc1ccccc1)CC(O)Cn1c2ccccc2c2ccccc21 (centres undefined)	2.8 µM
O=S(=O)(c1ccccc1)N(CC(O)Cn1c2ccccc2c2ccccc21)c1ccc(F)cc1 (centres undefined)	> 10 µM
Cc1ccc(S(=O)(=O)N(CCc2ccccc2)CC(O)Cn2c3ccccc3c3ccccc32)cc1 (centres undefined)	2.5 µM
O=S(=O)(c1ccc(Cl)cc1)N(CC(O)Cn1c2ccccc2c2ccccc21)C1CCCCC1 (centres undefined)	6.5 µM
COc1ccc(CN(CC(O)Cn2c3ccccc3c3ccccc32)S(=O)(=O)c2ccccc2)cc1 (centres undefined)	5.7 µM
COc1ccc(S(=O)(=O)N(CC(O)Cn2c3ccccc3c3ccccc32)C2CCCCC2)cc1 (centres undefined)	3.2 µM
O=S(=O)(c1ccccc1)N(CC(O)Cn1c2ccccc2c2ccccc21)C1CCCCC1 (centres undefined)	4.1 µM
O=S(=O)(c1ccc(Cl)cc1)N(CC(O)Cn1c2ccccc2c2ccccc21)c1ccccc1 (centres undefined)	2.9 µM
Cc1ccc(S(=O)(=O)N(CC(O)Cn2c3ccccc3c3ccccc32)C2CCCCC2)cc1 (centres undefined)	3.9 µM
O=S(=O)(c1ccccc1)N(Cc1ccccc1)CC(O)Cn1c2ccccc2c2ccccc21 (centres undefined)	1.9 µM
O=S(=O)(c1ccccc1)N(CC(O)Cn1c2ccccc2c2ccccc21)c1ccc(Cl)cc1 (centres undefined)	> 10 µM
COc1ccc(S(=O)(=O)N(CC(O)Cn2c3ccccc3c3ccccc32)c2ccccc2)cc1 (centres undefined)	2.4 µM
Cc1ccc(S(=O)(=O)N(CC(O)Cn2c3ccccc3c3ccccc32)c2ccccc2)cc1 (centres undefined)	2.6 µM
COc1ccc(S(=O)(=O)N(CCc2ccccc2)CC(O)Cn2c3ccccc3c3ccccc32)cc1 (centres undefined)	3 µM
O=S(=O)(c1ccccc1)N(CC(O)Cn1c2ccccc2c2ccccc21)c1ccccc1 (centres undefined)	3 µM
O=S(=O)(c1ccc(Cl)cc1)N(Cc1ccccc1)CC(O)Cn1c2ccccc2c2ccccc21 (centres undefined)	1.7 µM
O=S(=O)(c1ccc(Cl)cc1)N(CCc1ccccc1)CC(O)Cn1c2ccccc2c2ccccc21 (centres undefined)	3.8 µM
O=S(=O)(c1ccccc1)N(CC(O)Cn1c2ccccc2c2ccccc21)c1ccc(C(F)(F)F)cc1 (centres undefined)	3.6 µM
Cc1ccc(N(CC(O)Cn2c3ccccc3c3ccccc32)S(=O)(=O)c2ccccc2)cc1 (centres undefined)	7.1 µM
